Assay results as given in patent US11504330B2, “Formulation comprising particles containing a water-swellable or water-soluble polymeric component and a lipid component” (PERORA GMBH, priority 2014, dated 2022).

Assay: Tryptophan release / dissolution in fasted-state simulated gastric fluid (FaSSGF)
Type: physicochemical
Details: 30 mg powder in 22 mL FaSSGF, 37° C., agitated
Protocol: FaSSGF was prepared by dissolving 1 g of NaCl (Sigma-Aldrich) in 450 mL of water, adding 30 mg of SIF powder (biorelvant.com), adjusting the pH to 2.0 with 0.1 N HCl (Sigma-Aldrich) and adding water to a final volume of 500 mL.
30 mg of tryptophan powder were suspended in 22 mL FaSSGF at 37° C. and agitated (shaker ST5 from CAT, Germany). Aliquots were removed at time intervals of 5 min, and tryptophan concentration was quantified using absorption measurement at a wavelength of 280 nm in a NanoDrop® 2000 device (Thermo Scientific, USA).

## N[C@@H](Cc1c[nH]c2ccccc12)C(=O)O [Tryptophan, L-Tryptophan]
  time after which quantitatively dissolved: 10 min
